Reference: US12371454B2, “Cyclic peptide compound having Kras inhibitory action” (priority 2019, dated 2025)
Positions of bridges follow the written chain, without caps; N, C: chain ends. Non-standard residues stand in square brackets, D forms with d. Residues, ends and D or L forms follow the SMILES beside them. *: point of attachment. hPhe(3-Cl-4-CF3) = N[C@@H](CCc1ccc(C(F)(F)F)c(Cl)c1)C(=O)O; NMePhe(4-CF3) = CN[C@@H](Cc1ccc(C(F)(F)F)cc1)C(=O)O; hPhe(4-CF3) = N[C@@H](CCc1ccc(C(F)(F)F)cc1)C(=O)O; 3Oxa8azabicyclo(3.2.1)octane = C1CC2COCC1N2*; hPhe(4-Cl) = N[C@@H](CCc1ccc(Cl)cc1)C(=O)O; NMeCha = CN[C@@H](CC1CCCCC1)C(=O)O; NMeChg = CN[C@H](C(=O)O)C1CCCCC1; NMeI = CC[C@H](C)[C@H](NC)C(=O)O; NMeD = CN[C@@H](CC(=O)O)C(=O)O; NMeL = CN[C@@H](CC(C)C)C(=O)O; NMeNva = CCC[C@H](NC)C(=O)O; NMeS = CN[C@@H](CO)C(=O)O; Morpholide = C1CN(*)CCO1; Pyrrolidide = C1CCN(*)C1; Ac5c = NC1(C(=O)O)CCCC1; Sar = CNCC(=O)O; Propyl = CCC*

How the values were obtained:
[1] = system: Human pancreatic cancer cell line AsPC-1; assay: Measurement of AsPC-1 cell growth inhibition (AsPC-1 CGI); assay type: cell-based; conditions: 96 h
In short: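 AsPC-1 cells in 15% FBS RPMI-1640 were exposed to test compound for 96 hours at 37° C, with CellTiter-Glo as endpoint.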

[2] = biological target: T1, Kras and SOS1 (biotin-tagged human Kras loaded with GDP, His-tagged human SOS1) (Homo sapiens, UniProt P01116, G12D); assay: Protein-protein interaction inhibition between Kras and SOS1 (KrasGl2D-SOS PPI) using AlphaScreen; assay type: binding; conditions: AlphaScreen; biotin-tagged human Kras loaded with GDP, His-tagged human SOS1; read-out: KRAS G12D-SOS PPI IC50
T1 construct: made in house; host or cells: E. coli (stated for Kras only)
In short: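 Read-out is acceptor-bead light at 520-620 nm, arising when 680 nm-irradiated nickel donor beads pass singlet oxygen to streptavidin acceptors. The bead pair links His-tagged SOS1 with biotin-tagged, GDP-bound Kras from E. coli.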

T1 sequence (P01116 1-188 isoform P01116-2 G12D): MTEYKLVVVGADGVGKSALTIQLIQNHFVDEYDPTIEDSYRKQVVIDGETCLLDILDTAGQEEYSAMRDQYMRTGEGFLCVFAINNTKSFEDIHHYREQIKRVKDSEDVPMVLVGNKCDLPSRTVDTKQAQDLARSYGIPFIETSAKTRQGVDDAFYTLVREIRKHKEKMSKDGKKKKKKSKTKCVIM

SMILES	IC50 [1]	IC50 [2]
CC[C@H](C)[C@@H]1NC(=O)[C@H](CC(C)C)N(C)C(=O)C[C@@H](C(=O)N2C3CCC2COC3)N(C)C(=O)[C@H]([C@@H](C)CC)N(C)C(=O)C2(CCCC2)NC(=O)[C@@H]2CCCN2C(=O)[C@H](CCc2ccc(C(F)(F)F)c(Cl)c2)NC(=O)CN(C)C(=O)[C@H](CC2CCCCC2)N(C)C(=O)CN(C)C(=O)CN(C)C1=O [Compound 1938] ([NMeL]I[Sar][Sar][NMeCha][Sar][hPhe(3-Cl-4-CF3)]P[Ac5c][NMeI][NMeD]-{3Oxa8azabicyclo(3.2.1)octane}; lactam N-11)	20 to 50 nM	0.76 nM
CC[C@H](C)[C@@H]1NC(=O)[C@H](CC(C)C)N(C)C(=O)C[C@@H](C(=O)N2CCCC2)N(C)C(=O)[C@H](C2CCCCC2)N(C)C(=O)C2(CCCC2)NC(=O)[C@@H]2CCCN2C(=O)[C@H](CCc2ccc(C(F)(F)F)cc2)NC(=O)CN(C)C(=O)[C@H](CC2CCCCC2)N(C)C(=O)CN(C)C(=O)CN(C)C1=O [Compound 1939] ([NMeL]I[Sar][Sar][NMeCha][Sar][hPhe(4-CF3)]P[Ac5c][NMeChg][NMeD]-Pyrrolidide; lactam N-11)	100 to 500 nM	0.71 nM
CC[C@H](C)[C@@H]1NC(=O)[C@H](CC(C)C)N(C)C(=O)C[C@@H](C(=O)N2C3CCC2COC3)N(C)C(=O)[C@H](C2CCCCC2)N(C)C(=O)C2(CCCC2)NC(=O)[C@@H]2CCCN2C(=O)[C@H](CCc2ccc(C(F)(F)F)cc2)NC(=O)CN(C)C(=O)[C@H](CC2CCCCC2)N(C)C(=O)CN(C)C(=O)CN(C)C1=O [Compound 1940] ([NMeL]I[Sar][Sar][NMeCha][Sar][hPhe(4-CF3)]P[Ac5c][NMeChg][NMeD]-{3Oxa8azabicyclo(3.2.1)octane}; lactam N-11)	100 to 500 nM	1.6 nM
CC[C@H](C)[C@@H]1NC(=O)[C@H](CC(C)C)N(C)C(=O)C[C@@H](C(=O)N2CCOCC2)N(C)C(=O)[C@H](C2CCCCC2)N(C)C(=O)C2(CCCC2)NC(=O)[C@@H]2CCCN2C(=O)[C@H](CCc2ccc(Cl)cc2)NC(=O)CN(C)C(=O)[C@H](CC2CCCCC2)N(C)C(=O)CN(C)C(=O)CN(C)C1=O [Compound 1941] ([NMeL]I[Sar][Sar][NMeCha][Sar][hPhe(4-Cl)]P[Ac5c][NMeChg][NMeD]-Morpholide; lactam N-11)	50 to 100 nM	1.5 nM
CC[C@H](C)[C@@H]1NC(=O)[C@H](CC(C)C)N(C)C(=O)C[C@@H](C(=O)N2CCOCC2)N(C)C(=O)[C@H](C2CCCCC2)N(C)C(=O)C2(CCCC2)NC(=O)[C@@H]2CCCN2C(=O)[C@H](CCc2ccc(C(F)(F)F)cc2)NC(=O)CN(C)C(=O)[C@H](CC2CCCCC2)N(C)C(=O)CN(C)C(=O)CN(C)C1=O [Compound 1947] ([NMeL]I[Sar][Sar][NMeCha][Sar][hPhe(4-CF3)]P[Ac5c][NMeChg][NMeD]-Morpholide; lactam N-11)	50 to 100 nM	1.2 nM
CC[C@H](C)[C@@H]1NC(=O)[C@H](CC(C)C)N(C)C(=O)C[C@@H](C(=O)N2CCOCC2)N(C)C(=O)[C@H](C2CCCCC2)N(C)C(=O)C2(CCCC2)NC(=O)[C@@H]2CCCN2C(=O)[C@H](CCc2ccc(C(F)(F)F)c(Cl)c2)NC(=O)CN(C)C(=O)[C@H](Cc2ccc(C(F)(F)F)cc2)N(C)C(=O)CN(C)C(=O)CN(C)C1=O [Compound 1948] ([NMeL]I[Sar][Sar][NMePhe(4-CF3)][Sar][hPhe(3-Cl-4-CF3)]P[Ac5c][NMeChg][NMeD]-Morpholide; lactam N-11)	20 to 50 nM	0.54 nM
CCCOC[C@H]1C(=O)N(C)CC(=O)N[C@@H](CCc2ccc(C(F)(F)F)c(Cl)c2)C(=O)N2CCC[C@H]2C(=O)NC2(CCCC2)C(=O)N(C)[C@@H](C2CCCCC2)C(=O)N(C)[C@H](C(=O)N2CCOCC2)CC(=O)N(C)[C@@H](CCC)C(=O)N[C@@H]([C@@H](C)CC)C(=O)N(C)CC(=O)N(C)CC(=O)N1C [Compound 1949] ([NMeNva]I[Sar][Sar][NMeS](Propyl)[Sar][hPhe(3-Cl-4-CF3)]P[Ac5c][NMeChg][NMeD]-Morpholide; lactam N-11)	100 to 500 nM	0.6 nM
CC[C@H](C)[C@@H]1NC(=O)[C@H](CC(C)C)N(C)C(=O)C[C@@H](C(=O)N2C3CCC2COC3)N(C)C(=O)[C@H](C2CCCCC2)N(C)C(=O)C2(CCCC2)NC(=O)[C@@H]2CCCN2C(=O)[C@H](CCc2ccc(Cl)cc2)NC(=O)CN(C)C(=O)[C@H](CC2CCCCC2)N(C)C(=O)CN(C)C(=O)CN(C)C1=O [Compound 1950] ([NMeL]I[Sar][Sar][NMeCha][Sar][hPhe(4-Cl)]P[Ac5c][NMeChg][NMeD]-{3Oxa8azabicyclo(3.2.1)octane}; lactam N-11)	20 to 50 nM	2.8 nM
